Tested on: Human subcutaneous adipocytes
Assay: Adipocyte lipolysis assay (suppression of isoproterenol-stimulated fatty acid release)
Type: cell-based
Conditions: test compound concentration giving 50% fatty acid concentration reduction percentage in culture supernatant, 1 μM isoproterenol, 5 hours incubation, reduction by 100 μM nicotinic acid set at 100%
Text: The suppressive or promoting activity of a test compound on the lipolysis of neutral fat can be assayed according to an adipocyte lipolysis assay as a cell line assay. If a beta adrenoceptor is stimulated with isoproterenol or the like in adipocytes, lipolysis action in which neutral fat accumulated in the cells is decomposed into fatty acid and glycerol can be promoted, and as a result, the amount of such fatty acid or glycerol released out of the cells can be increased. When a test compound that suppresses lipolysis is added to adipocytes, lipolysis-promoting action by isoproterenol stimulation is reduced, and the concentration of fatty acid or glycerol in a medium is decreased. Accordingly, the suppressive activity of a test compound on lipolysis can be assayed by measuring the reduction percentage of the fatty acid concentration or glycerol concentration in a culture supernatant. Likewise, the promoting activity of a test compound on lipolysis can be assayed by measuring the increase percentage of the fatty acid concentration or glycerol concentration in a medium.
• (1) Human subcutaneous adipocytes disseminated onto a 96 well (Dainippon Sumitomo Pharma Co., Ltd.: F-SA-1096) • (2) Adipocyte Maintenance Medium (Dainippon Sumitomo Pharma Co., Ltd.: AM 1) • (3) Lipolysis assay buffer [137 mM NaCl, 5 mM KCl, 4.2 mM NaHCO3, 1.3 mM CaCl2, 0.5 mM KH2PO4, 0.5 mM MgCl2, 0.5 mM MgSO4, 5 mM Glucose, 20 mM Hepes (pH 7.4), 1% BSA, 1 μM Isoproterenol] • (4) NEFA-C Test Wako (Wako Pure Chemical Industries, Ltd.) Preparation of Screening Materials
In this operation, the actual concentration of the test compound in the buffer was 1/1000 of the above-described concentration.
The above-described subcutaneous adipocytes were cultured in 200 μL of an Adipocyte Maintenance Medium in each well for 7 days. During this culturing operation, the medium was exchanged with a fresh one every 3 days. The medium was exchanged by discarding 100 μL of the medium in each well and then adding 100 μL of a fresh Adipocyte Maintenance Medium to the well. Thereafter, the adipocytes were washed with a Lipolysis assay buffer. Subsequently, 50 μL of a Lipolysis assay buffer that contained the above-described test compound was added to each well, and it was then incubated for 5 hours. In order to obtain the measurement value of the test compound in each concentration, 5 wells on a 96-well plate were used with respect to each concentration. As a positive control of a compound having lipolysis suppressive activity, nicotinic acid was used with reference to a previous report [Green A et. al., J. Biol. Chem., 1992, 267(5), 3223-9].
40 μL of a culture supernatant was extracted from each well, and the fatty acid concentration in the supernatant was then measured. Such fatty acid concentration was measured as follows, using the above-described NEFA-C Test Wako. 80 μL of liquid A included in the kit was added to 40 μL of the culture supernatant extracted from each well, and the obtained mixture was then incubated at 37° C. for 10 minutes. Thereafter, 160 μL of liquid B was added, and the obtained mixture was further incubated at 37° C. for 10 minutes. Thereafter, the absorbance at a wavelength of 550 nm was measured. At the same time, a standard fatty acid solution included in the kit was diluted to prepare a dilution series having a volume of 40 μL. According to the same operations as described above, liquid A and liquid B were added, and the absorbance was then measured. In accordance with instructions included with the kit, a calibration curve was prepared. Based on the thus prepared calibration curve, the fatty acid concentration in the culture supernatant was calculated. The reduction percentage of the fatty acid concentration was calculated with the following formula, setting the reduction percentage obtained by addition of 100 μM (final concentration) of nicotinic acid at 100%. […]

IC50 (Homo sapiens, Adipocyte)	IC50	SMILES
101 nM	–	CCn1cc(NC(=O)CCc2cnn(-c3ccc(O)cc3)c2C(C)C)c(C(=O)O)c1 [Example 56, 4-{3-[1-(4-Hydroxyphenyl)-5-isopropylpyrazol-4-yl]propanoylamino}-1-ethylpyrrole-3-carboxylic acid]
8 nM	–	CCCCn1cc(NC(=O)CCc2cc(-c3ccc(O)cc3)no2)c(C(=O)O)c1 [Example 47, 4-{3-[3-(4-Hydroxyphenyl)isoxazol-5-yl]propanoyl}amino-1-butylpyrrole-3-carboxylic acid]
41 nM	–	CCn1cc(NC(=O)CCc2sc(-c3ccc(O)cc3O)nc2Cl)c(C(=O)O)c1 [Example 21, 4-{3-[4-Chloro-2-(2,4-dihydroxyphenyl)thiazol-5-yl]propanoyl}amino-1-ethylpyrrole-3-carboxylic acid]
663 nM	–	Cn1cc(NC(=O)CCc2cnc(-c3ccccc3)s2)c(C(=O)O)c1 [Example 5, 4-{3-(2-Phenylthiazol-5-yl)propanoyl}amino-1-methylpyrrole-3-carboxylic acid]
8 nM	–	CCn1cc(NC(=O)CCc2cc(-c3ccc(O)cc3)no2)c(C(=O)O)c1 [Example 44, 4-{3-[3-(4-Hydroxyphenyl)isoxazol-5-yl]propanoyl}amino-1-ethylpyrrole-3-carboxylic acid]
–	15 nM	CCn1cc(NC(=O)C(F)Cc2cnc(-c3ccc(O)cc3)s2)c(C(=O)O)c1 (single isomer, unassigned; (-)) [Example 23a, (−)-4-{3-[2-(4-Hydroxyphenyl)thiazol-5-yl]-2-fluoropropanoyl}amino-1-ethylpyrrole-3-carboxylic acid]
7 nM	–	CCn1cc(NC(=O)CCc2onc(-c3ccc(O)cc3F)c2Cl)c(C(=O)O)c1 [Example 43, 4-{3-[4-Chloro-3-(4-hydroxy-2-fluorophenyl)isoxazol-5-yl]propanoyl}amino-1-ethylpyrrole-3-carboxylic acid]
24 nM	–	Cn1cc(NC(=O)CCc2cnc(-c3ccc(O)cc3)s2)c(C(=O)O)c1 [Example 6, 4-{3-[2-(4-Hydroxyphenyl)thiazol-5-yl]propanoyl}amino-1-methylpyrrole-3-carboxylic acid]
7 nM	–	Cn1cc(NC(=O)CCc2nc(-c3ccc(O)cn3)no2)c(C(=O)O)c1 [Example 3, 4-{3-[(5-Hydroxypyridin-2-yl)-1,2,4-oxadiazol-5-yl]propanoyl}amino-1-methylpyrrole-3-carboxylic acid]
13 nM	–	CCn1cc(NC(=O)C(F)(F)Cc2cc(-c3ccc(O)cc3)no2)c(C(=O)O)c1 [Example 63, 4-{3-[3-(4-Hydroxyphenyl)isoxazol-5-yl]-2,2-difluoropropanoyl}amino-1-ethylpyrrole-3-carboxylic acid]
42 nM	–	CCn1cc(NC(=O)CCc2cnn(-c3ccccc3)c2C2CC2)c(C(=O)O)c1 [Example 29]
228 nM	–	CCn1cc(NC(=O)C(C)Cc2cnc(-c3ccc(O)cc3)s2)c(C(=O)O)c1 (centres unmarked) [Example 54, 4-{3-[2-(4-Hydroxyphenyl)thiazol-5-yl]-2-methylpropanoyl}amino-1-ethylpyrrole-3-carboxylic acid]
19 nM	–	CCc1c(-c2ccccc2)ncn1CCC(=O)Nc1cn(CC)cc1C(=O)O [Example 28, 4-{3-(4-Phenyl-5-ethylimidazol-1-yl)propanoyl}amino-1-ethylpyrrole-3-carboxylic acid]
29 nM	–	O=C(CCc1nc(-c2ccc(O)cc2)no1)Nc1cn(Cc2cc(F)cc(F)c2)cc1C(=O)O [Example 16, 4-{3-[(4-Hydroxyphenyl)-1,2,4-oxadiazol-5-yl]propanoyl}amino-1-(3,5-difluorobenzyl)pyrrole-3-carboxylic acid]
18 nM	–	CCn1cc(NC(=O)CCc2onc(-c3ccc(O)cc3)c2C(F)F)c(C(=O)O)c1 [Example 65, 4-{3-[4-Difluoromethyl-3-(4-hydroxyphenyl)isoxazol-5-yl]propanoyl}amino-1-ethylpyrrole-3-carboxylic acid]
10 nM	–	CCc1c(-c2ccc(O)cn2)noc1CC(F)(F)C(=O)Nc1cn(CC)cc1C(=O)O [Example 66, 4-{3-[4-Ethyl-3-(5-hydroxypyridin-2-yl)isoxazol-5-yl]-2,2-difluoropropanoyl}amino-1-ethylpyrrole-3-carboxylic acid]
7 nM	–	CCn1cc(NC(=O)CCc2onc(-c3ccc(O)cc3)c2Cl)c(C(=O)O)c1 [Example 33, 4-{3-[4-Chloro-(4-hydroxyphenyl)isoxazol-5-yl]propanoyl}amino-1-ethylpyrrole-3-carboxylic acid]
10 nM	–	CCn1cc(NC(=O)CCc2nnc(-c3ccc(O)cc3)s2)c(C(=O)O)c1 [Example 55, 4-{3-[5-(4-Hydroxyphenyl)[1,3,4]thiadiazole-2-yl]propanoyl}amino-1-ethylpyrrole-3-carboxylic acid]
42 nM	–	CCn1cc(NC(=O)C(F)Cc2cnn(-c3ccccc3)c2C2CC2)c(C(=O)O)c1 (centres unmarked) [Example 30]
771 nM	–	CCCCn1cc(NC(=O)CCc2nc(-c3ccc(O)cc3)no2)c(C(=O)O)c1Cl [Example 52, 4-{3-[3-(4-Hydroxyphenyl)-1,2,4-oxadiazol-5-yl]propanoyl}amino-2-chloro-1-butylpyrrole-3-carboxylic acid]
823 nM	–	CCCCn1cc(NC(=O)CCc2nc(-c3ccc(O)cc3)no2)c(C(=O)O)c1C [Example 50, 4-{3-[3-(4-Hydroxyphenyl)-1,2,4-oxadiazol-5-yl]propanoyl}amino-1-butyl-2-methylpyrrole-3-carboxylic acid]
1500 nM	–	Cn1cc(NC(=O)CCc2sc(-c3ccccc3)nc2Cl)c(C(=O)O)c1 [Example 7, 4-[3-(4-Chloro-2-phenylthiazol-5-yl)propanoyl]amino-1-methylpyrrole-3-carboxylic acid]
20 nM	–	CCn1cc(NC(=O)CCc2noc(-c3ccc(O)cc3)c2Cl)c(C(=O)O)c1 [Example 34, 4-{3-[5-(4-Hydroxyphenyl)-4-chloroisoxazol-3-yl]propanoyl}amino-1-ethylpyrrole-3-carboxylic acid]
135 nM	–	O=C(CCc1nc(-c2ccc(O)cc2)no1)Nc1cn(Cc2ccccc2)cc1C(=O)O [Example 49, 4-{3-[3-(4-Hydroxyphenyl)-1,2,4-oxadiazol-5-yl]propanoyl}amino-1-benzylpyrrole-3-carboxylic acid]
125 nM	–	Cn1cc(NC(=O)CCc2cnc(-c3ccc(O)c(F)c3)s2)c(C(=O)O)c1 [Example 9, 4-{3-[2-(4-Hydroxy-3-fluorophenyl)thiazol-5-yl]propanoyl}amino-1-methylpyrrole-3-carboxylic acid]
–	103 nM	CCn1cc(NC(=O)C(F)Cc2cnc(-c3ccc(O)cc3)s2)c(C(=O)O)c1 (single isomer, unassigned; (+)) [Example 23b, (+)-4-{3-[2-(4-Hydroxyphenyl)thiazol-5-yl]-2-fluoropropanoyl}amino-1-ethylpyrrole-3-carboxylic acid]
264 nM	–	CCCCn1cc(C(=O)O)c(NC(=O)CCc2nc(-c3ccc(O)cc3)no2)c1C#N [Example 51, 4-{3-[3-(4-Hydroxyphenyl)-1,2,4-oxadiazol-5-yl]propanoyl}amino-5-cyano-1-butylpyrrole-3-carboxylic acid]
36 nM	–	CCc1c(CC(F)C(=O)Nc2cn(CC)cc2C(=O)O)cnn1-c1ccccc1 (centres unmarked) [Example 27]
72 nM	–	CCc1c(-c2ccc(O)cc2)nsc1CCC(=O)Nc1cn(CC)cc1C(=O)O [Example 58, 4-{3-[4-Ethyl-3-(4-hydroxyphenyl)isothiazol-5-yl]propanoylamino}-1-ethylpyrrole-3-carboxylic acid]
